The values that follow come from ChEMBL document CHEMBL4609992, “Discovery of novel small molecule induced selective degradation of the bromodomain and extra-terminal (BET) bromodomain protein BRD4 and BRD2 with cellular potencies” (Bioorg Med Chem, 2020).

One experiment concerns MOLM-13. Put plainly: Antiproliferative activity against human MOLM13 cells assessed as reduction in cell viability measured after 48 hrs by CellTiter-Glo assay. It is filed as functional, cell-based. Conditions: MOLM-13, 48 h. (Cellular ATP, detected with luciferase, serves as a proxy for viable cell number.)
Experiment [1] concerns MV4-11. Nature of the experiment: Antiproliferative activity against human MV4-11 cells assessed as reduction in cell viability measured after 48 hrs by CellTiter-Glo assay. Conditions: MV4-11, 48 h. It is filed as functional, cell-based.
The target in experiment [2] is T1, Protein cereblon/Bromodomain-containing protein 4/Cullin-4A (Homo sapiens) (UniProt O60885+Q96SW2+Q13619). Nature of the experiment: Protac activity at cereblon/cullin4A/BRD4 in human MV4-11 cells assessed as induction of BRD4 degradation at 500 nM measured after 18 hrs by Western blot analysis relative to control. It is filed as cell-based.
For experiment [3], the target named is T1, Protein cereblon/Bromodomain-containing protein 4/Cullin-4A (Homo sapiens). Put plainly: Protac activity at cereblon/cullin4A/BRD4 in human MV4-11 cells assessed as induction of BRD4 degradation at 100 nM measured after 1 to 4 hrs by Western blot analysis. It is filed as cell-based. (In general: In western blotting, separated proteins are transferred to a membrane and probed.)

The target is the same in experiment [4]. Put plainly: Protac activity at cereblon/cullin4A/BRD4 in human MV4-11 cells assessed as downregulation of c-Myc at 50 nM measured after 18 hrs by Western blot analysis. It is filed as cell-based.
For experiment [5] the target is unchanged. Put plainly: Protac activity at cereblon/cullin4A/BRD4 in human MV4-11 cells assessed as induction of BRD4 degradation at 100 nM measured after >= 8 hrs by Western blot analysis. It is filed as cell-based.
Experiment [6] has as its target T2, Bromodomain-containing protein 4 (Homo sapiens, UniProt O60885). Put plainly: Binding affinity to recombinant human N-terminal His-tagged BRD4 BD1 (44 to 170 residues) expressed in Escherichia coli using H4K5AcK8Ac as substrate measured after 30 mins by AlphaScreen assay.
The target in experiment [7] is T2, Bromodomain-containing protein 4. Nature of the experiment: Binding affinity to recombinant human N-terminal His-tagged BRD4 BD2 (349 to 460 residues) expressed in Escherichia coli measured after 30 mins by AlphaScreen assay. On the technique in general: Bead proximity is the source of the signal in Alpha formats.
The test system of experiment [8] is MV4-11. Nature of the experiment: Induction of apoptosis in human MV4-11 cells at 10 uM measured after 24 hrs by Annexin V-FITC/propidium iodide staining based FACScan flow cytometry relative to control. It is filed as functional.
Experiment [9] deals with T2, Bromodomain-containing protein 4. Put plainly: Selectivity index, ratio of IC50 for BRD4 BD2 (unknown origin) to IC50 for BRD4 BD1 (unknown origin).

Calls of active or inactive are those of the source. No cut-off for these calls is given here. Some results are limits rather than exact numbers.

With `COc1ccccc1S(=O)(=O)Nc1ccc2c3c(cc(CCC(=O)NCCCCCCNc4cccc5c4C(=O)N(C4CCC(=O)NC4=O)C5=O)cc13)C(=O)N2C` (centres undefined), the concentration for half-maximal inhibition (IC50) (commonly the concentration at which inhibition is half-maximal) in the experiment on MOLM-13 was > 10000 nM; in the experiment on MV4-11 [1], 3430 nM.
Take `COc1ccccc1S(=O)(=O)Nc1ccc2c3c(cc(CCC(=O)NCCNc4cccc5c4C(=O)N(C4CCC(=O)NC4=O)C5=O)cc13)C(=O)N2C` (centres undefined): the results for the IC50 in the experiment on MOLM-13 and with MV4-11 [1] were > 10000 nM and 1650 nM, respectively.
As for `COc1ccccc1S(=O)(=O)Nc1ccc2c3c(cc(CCC(=O)NCCCNc4cccc5c4C(=O)N(C4CCC(=O)NC4=O)C5=O)cc13)C(=O)N2C` (centres undefined), the Activity in [2] was 100%. Also, the outcome in experiment [3], in experiment [4] and in [5] was Active. In addition, the IC50 in the experiment on MOLM-13 is 180 nM; in the experiment on MV4-11 [1], 25.2 nM.
Take `COC(=O)CCc1cc2c3c(ccc(NS(=O)(=O)c4ccccc4OC)c3c1)N(C)C2=O`: the IC50 in experiment [6] was 365 nM; in [7], 3690 nM.
Turning to `COc1ccccc1S(=O)(=O)Nc1ccc2c3c(cccc13)C(=O)N2C`, in the experiment with MV4-11 [8], the Activity was 86.07%. Further, in experiment [9], the Ratio IC50 came out at 50. The IC50 with MOLM-13 amounted to 3370 nM; in the experiment with MV4-11 [1], 370 nM.
Take `Cc1sc2c(c1C)C(c1ccc(Cl)cc1)=N[C@@H](CC(=O)OC(C)(C)C)c1nnc(C)n1-2`: the IC50 with MV4-11 [1] came out at 80.8 nM.
Take `COc1ccccc1S(=O)(=O)Nc1ccc2c3c(cc(CCC(=O)NCCCCCNc4cccc5c4C(=O)N(C4CCC(=O)NC4=O)C5=O)cc13)C(=O)N2C` (centres undefined): the figures for the IC50 in the experiment with MOLM-13 and with MV4-11 [1] were 177 nM and 32.2 nM, respectively.
